# In US11266715B2, “C3A receptor agonists for use against ischemic brain injury, stroke, traumatic brain injury, spinal cord injury and neurodegenerative disorders” (priority 2016, dated 2022):
# Entries after “also recorded” stand apart in the source; their conditions may differ.
# Experiments:
# [1] = system: VGLUT1+ puncta; test: VGLUT1 immunostaining of dorsal hippocampus after neonatal HI; type: in vivo, mouse; details: between groups or hemispheres
# Protocol: (§1) Neuronal nuclei (NeuN), growth associated protein 43 (GAP-43), synapsin I (SYN), vesicular glutamate transporter 1 (VGLUT1), Glial Fibrillary Acidic Protein (GFAP) and ionized calcium-binding adapter molecule 1 (Iba-1) were visualized in the cornu ammonis (CA) and dentate gyrus (DG) of the dorsal hippocampus by immunohistochemistry. Briefly, following heat-induced antigen retrieval with 0.01 M citrate buffer (pH 6, 0.05% Tween 20) for 3×5 min, sections were washed 3×5 min with PBS-T (0.05% Tween 20), non-specific protein binding was reduced by incubation with blocking buffer [4% normal donkey serum (NeuN and Iba-1), 1% bovine serum albumin (GAP-43 and SYN), 3% normal goat serum (VGLUT1), 2% bovine serum albumin (GFAP) in PBS-T] for 1 h at room temperature (RT). […]
# (§2) NeuN positive cells, GFAP positive relative area, as well as GAP-43, SYN, and VGLUT1 positive puncta were counted by using MetaMorph software (ver. 7.8.6, Molecular Devices, CA, USA) on confocal images obtained with a 20× (NeuN and GFAP) or 63× (GAP-43, SYN, and VGLUT1) objective (Carl Zeiss LSM 700 Laser Scanning Microscope, Jena, Germany). Iba-1 positive cell somata were counted on bright field images obtained with a 20× objective (Nikon Eclipse 80i). […]
# [2] = system: GAP-43+ puncta; test: GAP-43 immunostaining of dorsal hippocampus after neonatal HI; type: in vivo, mouse
# Protocol: as §1, with “(RT). Tissue was then incubated with the primary antibody [anti-NeuN biotinylated (1:200, MAB 377B, Millipore, Mass., USA), anti-GAP-43 (1:1000, MAB347, Millipore, Mass., USA), anti-SYN (1:150, SC-7379, Santa Cruz, Calif., USA), anti-VGLUT1 (1:500, AB5905, Millipore, Mass., USA), anti-GFAP (1:200, Z0334, Dako, Stockholm, Sweden), anti-Iba-1 (1:500, 019-19741, Wako, Osaka, Japan)] in blocking buffer overnight at 4° C. One slide per staining batch was incubated only with blocking buffer without primary antibody and used as a negative control.” for “(RT).”
# as §2
# [3] = Body temperature monitoring for systemic anaphylactic response after intranasal C3a; type: in vivo, mouse
# Protocol: Purified human C3a peptide (Complement Technologies) was diluted in sterile phosphate buffered saline (PBS) to a concentration of 200 nM and a total of 20 μl (10 μl/nostril; corresponding to approximately 1.13 μg/kg body weight) of peptide solution or PBS was given intranasally to awake, hand-restrained mice held in a supine position. Solutions were administered through a pipette tip, drop-wise in 5 μl portions divided by 1 min intervals to allow for absorption. C3a or PBS was given every 24 hours on days 7 to 21 post-stroke for the short-term study or on days 7 to 28 post-stroke for the long-term study. Mice were assigned to C3a or PBS treatment using randomization stratified by body weight to avoid potential confounding effects of body weight on behavioural performance. The investigators carrying out behavioural studies and analysing data were blinded to treatment group. For the assessment of potential systemic anaphylactic response due to intranasal C3a inoculation, body temperature was monitored using a rectal temperature probe (Harvard Apparatus) inserted approximately 4 mm into the rectum of awake mice restrained by the scruff. Baseline temperature was taken before intranasal administration and 5, 15, 30, 45 and 75 min after C3a or PBS administration.
# [4] = system: mice subjected to neonatal hypoxia-ischemia; details: single i.c.v. injection 1 h after HI, wild-type mice tested as adults (42 days later); not in C3aR−/− mice; cited from earlier work
substance,measurement,setting,value
"C3a: Purified human C3a peptide (Complement Technologies), C3a receptor agonist, amino acid sequence SEQ ID NO: 1",density or average area of VGLUT1+ puncta in CA1 or dentate gyrus,[1],did not find any differences
same,density of GAP-43+ puncta in CA1,[2]; between groups,did not find any differences between groups
same,expression of GAP-43 in the dentate gyrus,"[2]; mouse, in vivo",No effect
same,average GAP-43+ punctum area in CA1 of HI injured hippocampus vs sham mice,[2]; p<0.05 for PBS,"PBS treated, but not C3a treated, mice was larger compared with sham mice"
same,duration of the drop in body temperature,[3]; after intranasal C3a or PBS,5 to 10 min
same,adverse or systemic effects of intranasal C3a,"[3]; even after repeated administration, stroke studies",did not observe any adverse or systemic effects
same,adverse systemic response (hypersensitivity/anaphylaxis) to intranasal C3a,[3]; judged from body temperature,absence of an adverse systemic response
same,change in body temperature after intranasal administration,"[3]; rectal probe, awake mice, baseline and 5, 15, 30, 45, 75 min after intranasal C3a, same seen with PBS",very small drop in body temperature
same,HI-induced cognitive/memory impairment after single intraventricular C3a,[4],prevented HI-induced cognitive impairment; also recorded: ameliorated memory impairment
